Test results published in BindingDB's records for doi:10.1021/jm5003167 (Bristol-Myers Squibb, 2014).

Legend:
[1] = Antagonist activity at CCR1 receptor in human THP1 cells assessed as inhibition of MIP-1alpha induced chemotaxis after 60 mins
[2] = Antagonist activity at CCR1 receptor in human THP1 cells assessed as inhibition of HCC4-induced chemotaxis after 60 mins
[3] = Antagonist activity at CCR1 receptor in human THP1 cells assessed as inhibition of MPIF1-induced chemotaxis after 60 mins
[4] = Antagonist activity at CCR1 receptor in human THP1 cells assessed as inhibition of RANTES-induced chemotaxis after 60 mins
[5] = Antagonist activity at CCR1 receptor in human THP1 cells assessed as inhibition of LKN1-induced chemotaxis after 60 mins
[6] = Antagonist activity at CCR1 receptor in human THP1 cells assessed as inhibition of MIP-1alpha-induced chemotaxis after 60 mins
[7] = Antagonist activity at CCR1 receptor in human THP1 cells assessed as inhibition of HCC1-induced chemotaxis after 60 mins
[8] = Antagonist activity at CCR1 receptor in human THP1 cells assessed as inhibition of MCP3-induced chemotaxis after 60 mins

IC50 [1] [nM]	SMILES	also measured
6	CC(C)[C@@H](NC(=O)NC[C@@H](C)O)C(=O)N1CC[C@](O)(c2ccc(Cl)cc2)C(C)(C)C1	–
6	CC[C@@H](C)NC(=O)N[C@@H](C(=O)N1CC[C@](O)(c2ccc(Cl)cc2)C(C)(C)C1)C(C)C [US8633226, 897]	–
7	CC(C)[C@@H](NC(=O)NC[C@H](C)O)C(=O)N1CC[C@](O)(c2ccc(Cl)cc2)C(C)(C)C1	–
10	CC(C)[C@@H](NC(=O)N[C@H]1CC[C@H](O)C1)C(=O)N1CC[C@](O)(c2ccc(Cl)cc2)C(C)(C)C1	–
19	CC(C)[C@@H](NC(=O)N[C@@H]1CC[C@@H](O)C1)C(=O)N1CC[C@](O)(c2ccc(Cl)cc2)C(C)(C)C1	–
3	CC(C)[C@@H](NC(=O)NC1CCCC1)C(=O)N1CC[C@](O)(c2ccc(Cl)cc2)C(C)(C)C1	–
4	CC(C)[C@@H](NC(=O)N[C@@H]1CC[C@H](O)C1)C(=O)N1CC[C@](O)(c2ccc(Cl)cc2)C(C)(C)C1	–
6	CC(C)[C@@H](NC(=O)NCC(C)(C)O)C(=O)N1CC[C@](O)(c2ccc(Cl)cc2)C(C)(C)C1	IC50 [2]: 3.2 nM; IC50 [3]: 14 nM; IC50 [4]: 3.3 nM; IC50 [5]: 16 nM; IC50 [6]: 5.5 nM; IC50 [7]: 7.5 nM; IC50 [8]: 9.3 nM
6	CC(C)[C@@H](NC(=O)N[C@H]1CC[C@@H](O)C1)C(=O)N1CC[C@](O)(c2ccc(Cl)cc2)C(C)(C)C1	–
22	CC(C)[C@@H](NC(=O)CCC(C)(C)O)C(=O)N1CC[C@](O)(c2ccc(Cl)cc2)C(C)(C)C1	–
